Measured values: patent US8592455B2 (priority 2008, dated 2013)

Tests used:
[1] = target: Pim3 kinase (Homo sapiens (Human), UniProt Q86V86); conditions: read-out: Pim3 IC50
[2] = target: Pim1 kinase (Homo sapiens (Human), UniProt P11309); conditions: read-out: Pim1 IC50
Pim1 kinase, sequence (P11309 whole entry): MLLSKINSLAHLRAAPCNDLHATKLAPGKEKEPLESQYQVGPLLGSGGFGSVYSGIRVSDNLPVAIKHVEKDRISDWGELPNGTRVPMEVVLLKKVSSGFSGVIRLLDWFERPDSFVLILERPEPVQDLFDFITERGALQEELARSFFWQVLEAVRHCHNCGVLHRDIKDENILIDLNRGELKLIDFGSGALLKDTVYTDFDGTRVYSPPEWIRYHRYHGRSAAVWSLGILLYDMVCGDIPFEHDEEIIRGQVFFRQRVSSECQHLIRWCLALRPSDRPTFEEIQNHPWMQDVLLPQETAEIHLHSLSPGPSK

Compound | IC50 [1] [nM] | IC50 [2] [nM]
N[C@H]1CCC[C@@H](c2ccncc2NC(=O)c2ccc(F)c(-c3cc(F)cc(F)c3F)n2)C1 [Example 14, N-(4-((1R,3S)-3-aminocyclohexyl)pyridin-3-yl)-5-fluoro-6-(2,3,5-trifluorophenyl)picolinamide] | 12 | 6
CCc1ccc(F)c(-c2cccc(C(=O)Nc3cnccc3[C@H]3C[C@@H](N)[C@H](O)[C@@H](C)C3)n2)c1F [Example 15, N-(4-((1R,3R,4R,5S)-3-amino-4-hydroxy-5-methylcyclohexyl)pyridin-3-yl)-6-(3-ethyl-2,6-difluorophenyl)picolinamide] | 6 | 3
CCc1ccc(F)c(-c2cccc(C(=O)Nc3cnccc3[C@H]3C[C@@H](N)[C@@H](O)[C@@H](C)C3)n2)c1F [Example 17, N-(4-((1R,3R,4S,5S)-3-amino-4-hydroxy-5-methylcyclohexyl)pyridin-3-yl)-6-(3-ethyl-2,6-difluorophenyl)picolinamide] | 5 | 1
CCc1ccc(F)c(-c2cccc(C(=O)Nc3cnccc3[C@@H]3CCC[C@H](N)C3)n2)c1F [Example 19, N-(4-((1R,3S)-3-aminocyclohexyl)pyridin-3-yl)-6-(3-ethyl-2,6-difluorophenyl)picolinamide] | 7 | 3
Cc1ccc(F)c(-c2nc(C(=O)Nc3cnccc3[C@@H]3CCC[C@H](N)C3)ccc2F)c1F [Example 20, N-(4-((1R,3S)-3-aminocyclohexyl)pyridin-3-yl)-6-(2,6-difluoro-3-methylphenyl)-5-fluoropicolinamide] | 3 | 1
CCc1ccc(F)c(-c2cccc(C(=O)Nc3cnccc3[C@@H]3C[C@H](C)C[C@H](N)C3)n2)c1F [Example 21, N-(4-((1R,3S,5S)-3-amino-5-methylcyclohexyl)pyridin-3-yl)-6-(3-ethyl-2,6-difluorophenyl)picolinamide] | 6 | 2
Cc1ccc(F)c(-c2nc(C(=O)Nc3cnccc3N3C[C@@H](N)[C@H](O)[C@@H](C)C3)ccc2F)c1F [Example 22, N-(4-((3R,4R,5S)-3-amino-4-hydroxy-5-methylpiperidin-1-yl)pyridin-3-yl)-6-(2,6-difluoro-3-methylphenyl)-5-fluoropicolinamide] | 3 | 1
C[C@H]1CN(c2ccncc2NC(=O)c2cccc(-c3ccccc3F)n2)C[C@@H](N)[C@@H]1O [Example 23, N-(4-((3R,4R,5S)-3-amino-4-hydroxy-5-methylpiperidin-1-yl)pyridin-3-yl)-6-(2-fluorophenyl)picolinamide] | 3 | 2
C[C@H]1CN(c2ccncc2NC(=O)c2nc(-c3c(F)cccc3F)ccc2F)C[C@@H](N)[C@@H]1O [Example 24, N-(4-((3R,4R,5S)-3-amino-4-hydroxy-5-methylpiperidin-1-yl)pyridin-3-yl)-6-(2,6-difluorophenyl)-3-fluoropicolinamide] | 1 | 1
Cc1ccc(F)c(-c2nc(C(=O)Nc3cnccc3[C@@H]3C[C@H](C)C[C@H](N)C3)ccc2F)c1F [Example 27, N-(4-((1R,3S,5S)-3-amino-5-methylcyclohexyl)pyridin-3-yl)-6-(2,6-difluoro-3-methylphenyl)-5-fluoropicolinamide] | 2 | 1
Cc1ccc(F)c(-c2cccc(C(=O)Nc3cnccc3[C@@H]3CCC[C@H](N)C3)n2)c1F [Example 28, N-(4-((1R,3S)-3-aminocyclohexyl)pyridin-3-yl)-6-(2,6-difluoro-3-methylphenyl)picolinamide] | 2 | 1
Cc1ccc(F)c(-c2cccc(C(=O)Nc3cnccc3[C@H]3C[C@@H](N)[C@H](O)[C@@H](C)C3)n2)c1F [Example 30, N-(4-((1R,3R,4R,5S)-3-amino-4-hydroxy-5-methylcyclohexyl)pyridin-3-yl)-6-(2,6-difluoro-3-methylphenyl)picolinamide] | 4 | 2
Cc1ccc(F)c(-c2cccc(C(=O)Nc3cnccc3[C@H]3C[C@@H](N)[C@@H](O)[C@@H](C)C3)n2)c1F [Example 31, N-(4-((1R,3R,4S,5S)-3-amino-4-hydroxy-5-methylcyclohexyl)pyridin-3-yl)-6-(2,6-difluoro-3-methylphenyl)picolinamide] | 4 | 2
N[C@H]1CCC[C@@H](c2ccncc2NC(=O)c2ccc(F)c(-c3c(F)cc(O)cc3F)n2)C1 [Example 32, N-(4-((1R,3S)-3-aminocyclohexyl)pyridin-3-yl)-6-(2,6-difluoro-4-hydroxyphenyl)-5-fluoropicolinamide] | 3 | 1
N[C@H]1CCC[C@@H](c2ccncc2NC(=O)c2ccc(F)c(-c3cc(O)ccc3F)n2)C1 [Example 33, N-(4-((1R,3S)-3-aminocyclohexyl)pyridin-3-yl)-5-fluoro-6-(2-fluoro-5-hydroxyphenyl)picolinamide] | 3 | 1
N[C@H]1CCC[C@@H](c2ccncc2NC(=O)c2nc(-c3cc(O)ccc3F)ccc2F)C1 [Example 34, N-(4-((1R,3S)-3-aminocyclohexyl)pyridin-3-yl)-3-fluoro-6-(2-fluoro-5-hydroxyphenyl)picolinamide] | 6 | 4

Compound | IC50 [1] [nM] | IC50 [2] [nM]
C[C@@H]1C[C@H](N)C[C@H](c2ccncc2NC(=O)c2cccc(-c3cc(O)ccc3F)n2)C1 [Example 35, N-(4-((1R,3S,5S)-3-amino-5-methylcyclohexyl)pyridin-3-yl)-6-(2-fluoro-5-hydroxyphenyl)picolinamide] | 3 | 1
C[C@@H]1C[C@H](N)C[C@H](c2ccncc2NC(=O)c2cccc(-c3ccc(O)cc3F)n2)C1 [Example 37, N-(4-((1R,3S,5S)-3-amino-5-methylcyclohexyl)pyridin-3-yl)-6-(2-fluoro-4-hydroxyphenyl)picolinamide] | 5 | 2
C[C@@H]1C[C@H](N)C[C@H](c2ccncc2NC(=O)c2ccc(F)c(-c3ccc(O)cc3F)n2)C1 [Example 38, N-(4-((1R,3S,5S)-3-amino-5-methylcyclohexyl)pyridin-3-yl)-5-fluoro-6-(2-fluoro-4-hydroxyphenyl)picolinamide] | 3 | 1
C[C@@H]1C[C@H](N)C[C@H](c2ccncc2NC(=O)c2nc(-c3ccc(O)cc3F)ccc2F)C1 [Example 39, N-(4-((1R,3S,5S)-3-amino-5-methylcyclohexyl)pyridin-3-yl)-3-fluoro-6-(2-fluoro-4-hydroxyphenyl)picolinamide] | 12 | 7
C[C@@H]1C[C@H](N)C[C@H](c2ccncc2NC(=O)c2nc(-c3cc(O)ccc3F)ccc2F)C1 [Example 43, N-(4-((1R,3S,5S)-3-amino-5-methylcyclohexyl)pyridin-3-yl)-3-fluoro-6-(2-fluoro-5-hydroxyphenyl)picolinamide] | 2 | 1
COc1ccc(F)c(-c2nc(C(=O)Nc3cnccc3[C@H]3C[C@@H](N)[C@H](O)[C@@H](C)C3)ccc2F)c1F [Example 47, N-(4-((1R,3R,4R,5S)-3-amino-4-hydroxy-5-methylcyclohexyl)pyridin-3-yl)-6-(2,6-difluoro-3-methoxyphenyl)-5-fluoropicolinamide] | 3 | 1
CC1(C)C[C@H](N)C[C@H](c2ccncc2NC(=O)c2ccc(F)c(-c3c(F)cccc3F)n2)C1 [Example 49, N-(4-((1R,5R)-5-amino-3,3-dimethylcyclohexyl)pyridin-3-yl)-6-(2,6-difluorophenyl)-5-fluoropicolinamide] | 2 | 1
C[C@@H]1C[C@H](N)C[C@H](c2ccncc2NC(=O)c2nc(-c3c(F)cccc3F)c(F)cc2N)C1 [Example 51, 3-amino-N-(4-((1R,3S,5S)-3-amino-5-methylcyclohexyl)pyridin-3-yl)-6-(2,6-difluorophenyl)-5-fluoropicolinamide] | 1 | 1
N[C@H]1CCC[C@@H](c2ccncc2NC(=O)c2ccc(F)c([C@H]3CC[C@@H](O)CC3)n2)C1 [Example 53, N-(4-((1R,3S)-3-aminocyclohexyl)pyridin-3-yl)-5-fluoro-6-((1s,4s)-4-hydroxycyclohexyl)picolinamide] | 65 | 10
N[C@H]1CCC[C@@H](c2ccncc2NC(=O)c2ccc(F)c([C@H]3CC[C@H](O)CC3)n2)C1 [Example 56, N-(4-((1R,3S)-3-aminocyclohexyl)pyridin-3-yl)-5-fluoro-6-((1r,4r)-4-hydroxycyclohexyl)picolinamide] | 102 | 11
C[C@@H]1C[C@H](N)C[C@H](c2ccncc2NC(=O)c2ccc(F)c(-c3cc(F)ccc3F)n2)C1 [Example 61, N-(4-((1R,3S,5S)-3-amino-5-methylcyclohexyl)pyridin-3-yl)-6-(2,5-difluorophenyl)-5-fluoropicolinamide] | 4 | 1
C[C@@H]1C[C@H](N)C[C@H](c2ccncc2NC(=O)c2cccc(-c3ccccc3F)n2)C1 [Example 62, N-(4-((1R,3S,5S)-3-amino-5-methylcyclohexyl)pyridin-3-yl)-6-(2-fluorophenyl)picolinamide] | 3 | 1
C[C@@H]1C[C@H](N)C[C@H](c2ccncc2NC(=O)c2cccc(-c3c(F)cccc3F)n2)C1 [Example 63, N-(4-((1R,3S,5S)-3-amino-5-methylcyclohexyl)pyridin-3-yl)-6-(2,6-difluorophenyl)picolinamide] | 2 | 1
CCCOc1ccc(F)c(-c2nc(C(=O)Nc3cnccc3[C@@H]3CC[C@H](O)[C@H](N)C3)ccc2F)c1 [Example 64, N-(4-((1R,3R,4S)-3-amino-4-hydroxycyclohexyl)pyridin-3-yl)-5-fluoro-6-(2-fluoro-5-propoxyphenyl)picolinamide] | 5 | 2
CCCOc1ccc(F)c(-c2nc(C(=O)Nc3cnccc3[C@@H]3CC[C@H](O)[C@H](N)C3)c(N)cc2F)c1 [Example 67, 3-amino-N-(4-((1R,3R,4S)-3-amino-4-hydroxycyclohexyl)pyridin-3-yl)-5-fluoro-6-(2-fluoro-5-propoxyphenyl)picolinamide] | 3 | 1
